For orientation: IC50 means the midpoint of a concentration-inhibition curve. A low value points to inhibition by little substance.

The nature of the assay: Inhibition of Trypanosoma cruzi trans-sialidase.

`CC(=O)N[C@H]1[C@H]([C@H](O)[C@H](O)CO)OC(Oc2ccc([N+](=O)[O-])cc2C(F)F)(C(=O)O)C[C@H]1O` (stereo partly specified) had an IC50 of 600 µM.

The values are drawn from ChEMBL document CHEMBL5108075, “Sialidase Inhibitors with Different Mechanisms” (J Med Chem, 2022).
